Values quoted from earlier work as cited in patent US20100015174A1, “METHOD TO CONTROL DENGUE VIRUSES IN HUMANS BY PICOLINIC ACID AND DERIVATIVES THEREOF” (priority 2008, published 2010).

Experiments:
J2 retrovirus = details: GG2EE transformed macrophages; cited from earlier work
[1] = tested on: human aortic endothelial cells; details: cited from earlier work

In the case of IFN-gamma: type II (immune) interferon, the J2 retrovirus expression (J2 retrovirus) is listed as “not affected”.
For O=C(O)c1cccnc1 [Niacin, Nicotinic acid], the “change of reactive oxygen species (ROS)” value [1] is listed as > 50%, the “change of vascular adhesion molecules (VCAM-I)” value [1] is listed as 80% and the “increase of NAD(P)H levels” value [1] is listed as 54%.
